# In the supplement of paper PMC11451515:
# Tested on: NOMO1
# Assay: cell viability relative to DMSO control; higher = less cytotoxic
# Conditions: 48 h
# How it was run: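 Before seeding, each leukemia line was adapted for at least four passages in each medium. NOMO1 or SEM cells (500 cells/well) and P12-Ichikawa cells (1000 cells/well) went into 1536-well plates at 5 μl, then received library compounds in DMSO by pin dosing across 11 threefold concentrations, 47 μM to 0.79 nM. Readout was CellTiter-Glo One luminescence after 48 h at 37°C, and viability is given as a per-plate percentage of DMSO wells, with cell-free wells as background.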
# [1] = HPLM + 10% dialyzed FBS, 0.000781 µM
# [2] = HPLM + 10% dialyzed FBS, 0.00234 µM
# [3] = HPLM + 10% dialyzed FBS, 0.00702 µM
# [4] = HPLM + 10% dialyzed FBS, 0.0211 µM
# [5] = HPLM + 10% dialyzed FBS, 0.0632 µM
# [6] = HPLM + 10% dialyzed FBS, 0.19 µM
# [7] = HPLM + 10% dialyzed FBS, 0.569 µM
# [8] = HPLM + 10% dialyzed FBS, 1.71 µM
# [9] = HPLM + 10% dialyzed FBS, 5.12 µM
# [10] = HPLM + 10% dialyzed FBS, 15.4 µM
# [11] = HPLM + 10% dialyzed FBS, 46.1 µM
# [12] = RPMI 5 mM glucose + 10% FBS, 0.000781 µM
# [13] = RPMI 5 mM glucose + 10% FBS, 0.00234 µM
# [14] = RPMI 5 mM glucose + 10% FBS, 0.00702 µM
# [15] = RPMI 5 mM glucose + 10% FBS, 0.0211 µM
# [16] = RPMI 5 mM glucose + 10% FBS, 0.0632 µM
# [17] = RPMI 5 mM glucose + 10% FBS, 0.19 µM
# [18] = RPMI 5 mM glucose + 10% FBS, 0.569 µM
# [19] = RPMI 5 mM glucose + 10% FBS, 1.71 µM
# [20] = RPMI 5 mM glucose + 10% FBS, 5.12 µM
# [21] = RPMI 5 mM glucose + 10% FBS, 15.4 µM
# [22] = RPMI 5 mM glucose + 10% FBS, 46.1 µM
# [23] = RPMI 5 mM glucose + 10% dialyzed FBS, 0.000781 µM
# [24] = RPMI 5 mM glucose + 10% dialyzed FBS, 0.00234 µM
# [25] = RPMI 5 mM glucose + 10% dialyzed FBS, 0.00702 µM
# [26] = RPMI 5 mM glucose + 10% dialyzed FBS, 0.0211 µM
# [27] = RPMI 5 mM glucose + 10% dialyzed FBS, 0.0632 µM
# [28] = RPMI 5 mM glucose + 10% dialyzed FBS, 0.19 µM
# [29] = RPMI 5 mM glucose + 10% dialyzed FBS, 0.569 µM
# [30] = RPMI 5 mM glucose + 10% dialyzed FBS, 1.71 µM
# [31] = RPMI 5 mM glucose + 10% dialyzed FBS, 5.12 µM
# [32] = RPMI 5 mM glucose + 10% dialyzed FBS, 15.4 µM
# [33] = RPMI 5 mM glucose + 10% dialyzed FBS, 46.1 µM
SMILES,cell viability [1] [%],cell viability [2] [%],cell viability [3] [%],cell viability [4] [%],cell viability [5] [%],cell viability [6] [%],cell viability [7] [%],cell viability [8] [%],cell viability [9] [%],cell viability [10] [%],cell viability [11] [%],cell viability [12] [%],cell viability [13] [%],cell viability [14] [%],cell viability [15] [%],cell viability [16] [%],cell viability [17] [%],cell viability [18] [%],cell viability [19] [%],cell viability [20] [%],cell viability [21] [%],cell viability [22] [%],cell viability [23] [%],cell viability [24] [%],cell viability [25] [%],cell viability [26] [%],cell viability [27] [%],cell viability [28] [%],cell viability [29] [%],cell viability [30] [%],cell viability [31] [%],cell viability [32] [%],cell viability [33] [%]
Cl.Cl.Cl.O[C@@H](COc1cccc2ncccc12)CN1CCN([C@@H]2c3ccccc3[C@@H]3[C@H](c4ccccc42)C3(F)F)CC1,79.7,84.8,75.8,89.4,94.7,102,93.8,76.5,94.6,70.8,68.6,79.7,78.4,75.8,91.7,97,84.5,89.8,87.9,81,76.2,74.2,98.6,83.8,87.2,79.5,81,92.4,73.5,84.2,86.2,78.2,87
CN[S+](=O)([O-])Cc1ccc2[nH]cc(CCN(C)C)c2c1,116,124,118,124,130,130,148,136,128,135,122,106,124,110,118,110,120,117,109,129,139,111,113,118,114,122,118,123,122,120,118,129,129
CC1=C(/C=C/C(C)=C/C=C/C(C)=C/C=C/C=C(C)/C=C/C=C(C)/C=C/C2=C(C)CCCC2(C)C)C(C)(C)CCC1,115,110,108,104,104,107,100,98.2,118,92.9,98.2,119,112,110,111,108,108,99.3,101,113,102,95.5,101,113,129,108,112,111,107,117,114,95.1,90.3
N=C(CCSCc1csc(N=C(N)N)n1)N[S+](N)(=O)[O-],87,95.6,110,101,99.1,83.2,101,115,101,91.8,107,80.2,94.7,94.8,92,92.2,97.5,93.8,88.1,99.1,86.8,88.3,84.7,96,89.9,92.1,100,106,95.7,93.7,100,97,103
CC/C(=C(/c1ccc(O)cc1)c1ccc(OCCNC)cc1)c1ccccc1,99.4,98.4,98,103,106,130,113,123,90.8,75.9,47.1,102,97.2,120,108,114,97.9,117,122,108,100,45.8,103,99.7,102,115,101,106,111,104,96.2,84.3,55.6
CC(C)(C)c1cc(NC(=O)Nc2ccc(-c3cn4c(n3)sc3cc(OCCN5CCOCC5)ccc34)cc2)no1,92.8,93.9,90.5,104,101,102,87.3,99.7,110,123,96.5,76.8,76,85.1,88.3,82,79.2,81.4,87,81.4,81.8,88.5,85.1,94.8,101,82.3,90.5,90.8,90.8,93.1,92.9,92.1,89.7
CC(C)NCC(O)COc1ccc(COCCOC(C)C)cc1 (stereo unspecified),114,110,121,113,122,99.8,118,109,109,95.4,73.1,108,116,108,107,114,116,107,110,97.3,103,91.4,111,111,119,105,129,111,111,99.7,111,116,88.7
